# Results published in ChEMBL document CHEMBL1759841, “8-Hydroxynaphthalene-1,4-dione derivative as novel compound for glioma treatment” (Bioorg Med Chem Lett, 2011).
# Legend:
# [1] = Inhibition of CK2
# [2] = Inhibition of CK1
# Aurora kinase A = molecular target: T1, Aurora kinase A (Homo sapiens, UniProt O14965); assay: Inhibition of Aurora A
# T1 sequence (O14965 whole entry): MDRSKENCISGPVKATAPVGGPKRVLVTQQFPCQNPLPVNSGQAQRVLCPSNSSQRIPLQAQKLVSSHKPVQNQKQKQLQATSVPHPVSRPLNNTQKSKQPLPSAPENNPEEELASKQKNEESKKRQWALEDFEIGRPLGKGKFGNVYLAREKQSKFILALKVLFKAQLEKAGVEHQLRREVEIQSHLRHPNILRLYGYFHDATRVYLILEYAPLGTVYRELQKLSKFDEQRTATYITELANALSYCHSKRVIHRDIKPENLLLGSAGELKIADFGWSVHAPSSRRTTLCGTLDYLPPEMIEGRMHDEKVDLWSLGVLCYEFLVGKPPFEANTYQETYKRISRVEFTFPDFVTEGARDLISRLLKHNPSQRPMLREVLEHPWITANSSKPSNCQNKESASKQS
# [3] = Inhibition of PKA
# [4] = molecular target: Dual specificity tyrosine-phosphorylation-regulated kinase 1A (Homo sapiens, UniProt Q13627); assay: Inhibition of DYRK1a
Structure (SMILES),IC50 [1] [µM],IC50 [2] [µM],IC50 (Aurora kinase A) [µM],IC50 [3] [µM],IC50 [4] [µM]
CN(C)c1ccc(C=C2C(=O)NC(=O)NC2=O)cc1,> 40,> 40,–,–,–
CC1c2cc(Br)c(O)c(Br)c2OC(=O)C1Br (stereo unspecified),2,> 40,–,–,–
O=c1ccc2cc(S(=O)(=O)N3CCNCC3)cc(Cl)c2o1,> 40,> 40,–,–,–
CCN(CC)CCC(=O)Nc1ccc(O)c2c1C(=O)c1cccc(O)c1C2=O,> 40,> 40,–,–,–
Cc1coc2cc3oc(=O)c(NC(=O)CN)cc3cc12,> 40,> 40,–,–,–
O=C1C=C(c2ccc(O)c(O)c2O)C(=O)c2c1cccc2[N+](=O)[O-],23,> 40,4.8,14,–
C[N+](C)(C)CC(=O)OCc1cc(O)c2c(c1)C(=O)c1cccc(O)c1C2=O,> 40,> 40,–,–,–
Cc1ccc(S(=O)(=O)Oc2ccc3ccc(O)cc3c2)cc1,> 40,> 40,–,–,–
C[N+]1(Cc2cc(O)c3c(c2)C(=O)c2cccc(O)c2C3=O)CCOCC1,> 40,10,–,–,–
O=C1C=C(c2ccc(O)c(O)c2O)C(=O)c2c(O)ccc(O)c21,3.5,> 40,6.2,–,21.4
O=C1NC(=O)C(=Cc2ccc(O)cc2O)C(=O)N1,> 40,> 40,–,–,–
